Experimental findings from US8546579B2, “Bicycloheteroaryl compounds as P2X7 modulators and uses thereof” (Evotec (US) Inc., priority 2006, dated 2013) are described below.

The first test concerns the target T1, P2X7 receptor (Homo sapiens, UniProt Q99572).
T1 construct: host or cells: THP-1 cells differentiated with LPS and IFN-γ
T1 sequence (Q99572 1-595): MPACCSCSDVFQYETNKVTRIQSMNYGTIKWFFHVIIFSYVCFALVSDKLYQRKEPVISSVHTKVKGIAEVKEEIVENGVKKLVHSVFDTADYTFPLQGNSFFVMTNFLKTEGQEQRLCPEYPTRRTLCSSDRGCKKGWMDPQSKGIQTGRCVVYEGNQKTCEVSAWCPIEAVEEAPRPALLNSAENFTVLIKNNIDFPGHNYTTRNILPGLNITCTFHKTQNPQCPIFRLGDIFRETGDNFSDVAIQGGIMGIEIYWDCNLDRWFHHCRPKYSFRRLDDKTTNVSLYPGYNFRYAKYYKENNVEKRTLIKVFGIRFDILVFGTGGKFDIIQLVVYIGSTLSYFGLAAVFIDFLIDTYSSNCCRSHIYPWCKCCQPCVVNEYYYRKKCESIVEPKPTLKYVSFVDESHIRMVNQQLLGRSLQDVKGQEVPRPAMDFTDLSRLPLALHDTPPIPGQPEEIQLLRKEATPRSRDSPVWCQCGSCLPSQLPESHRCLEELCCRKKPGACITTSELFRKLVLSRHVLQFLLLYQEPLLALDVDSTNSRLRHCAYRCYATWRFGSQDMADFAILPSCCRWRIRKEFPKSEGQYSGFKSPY
In words: IL-1β release assay in differentiated THP-1 cells stimulated with BzATP (Example 9). It is filed as cell-based. The settings on record: 0.1 μM compound; differentiated THP-1 cells, BzATP 250 uM; symbols * to ****; read-out: IL-1β % Inhib. (asterisk symbols: at 0.1 μM). In outline: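 IC50 derived by four-parameter logistic fit of percent inhibition of IL-1β release, measured by ELISA after 45 min stimulation with 250 uM BzATP. Cells: THP-1 differentiated 16 h with 100 ng/mL LPS plus IFN-γ, LPS-primed 2 h, compound added 30 min beforehand.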
With `COc1cc(OC)cc(C(=O)Nc2cccc3c(=O)n(C)ccc23)c1` [Compound 1290], the inhibition at 0.1 µM was in the range of 0 to 25%.

As for `COCCn1ccc2c(NC(=O)Cc3cc(OC)ccc3OC)cccc2c1=O` [Compound 1313], the inhibition at 0.1 µM was in the range of 0 to 25%.

`COc1cc(OC)cc(C(=O)Nc2cccc3c(=O)n(Cc4cccnc4)ccc23)c1` [Compound 1346]: the inhibition at 0.1 µM lay in the range of 51 to 75%.

As to `CC(C(=O)Nc1cccc2c(=O)n(Cc3cccnc3)ccc12)c1ccccc1` (stereo not drawn) [Compound 1347], the inhibition at 0.1 µM is 26 to 50%.

Consider `COc1ccccc1CCC(=O)Nc1cccc2c(=O)n(Cc3cccnc3)ccc12` [Compound 1348], for which the inhibition at 0.1 µM was 0 to 25%.

As to `COc1ccc(CCC(=O)Nc2cccc3c(=O)n(Cc4cccnc4)ccc23)cc1` [Compound 1349], the inhibition at 0.1 µM fell in the range of 0 to 25%.

For `O=C(Cc1cccc2ccccc12)Nc1cccc2c(=O)n(Cc3cccnc3)ccc12` [Compound 1350], the inhibition at 0.1 µM was 0 to 25%.

Still in this test, the particulars now being: 0.3 μM compound; differentiated THP-1 cells, BzATP 250 uM; symbols + to ++++; read-out: IL-1β % Inhib. @ 0.3 μM.
`CC(C)(C)Cn1ccc2c(NC(=O)CCc3cccc(Cl)c3)cccc2c1=O` [Compound 1287]: the inhibition at 0.3 µM is 0 to 25%.

Consider `CC(C)Cc1ccc(C(=O)Nc2cccc3c(=O)n(CC(C)(C)C)ccc23)cc1` [Compound 1288], for which the inhibition at 0.3 µM lay within 0 to 25%.

Regarding `Cc1cccc(C(=O)Nc2cccc3c(=O)n(C)ccc23)c1C` [Compound 1289], the inhibition at 0.3 µM lay within 0 to 25%.

`CCOc1ccc(C(=O)Nc2cccc3c(=O)n(C)ccc23)cc1` [Compound 1291]: the inhibition at 0.3 µM was 0 to 25%.

With `CC(C(=O)Nc1cccc2c(=O)n(C)ccc12)c1ccccc1` (stereo not drawn) [Compound 1292], the inhibition at 0.3 µM lay in the range of 0 to 25%.

Consider `COc1ccc(CCC(=O)Nc2cccc3c(=O)n(C)ccc23)cc1` [Compound 1293], for which the inhibition at 0.3 µM fell in the range of 0 to 25%.

On to `Cn1ccc2c(NC(=O)Cc3ccccc3F)cccc2c1=O` [Compound 1294], for which the inhibition at 0.3 µM is 0 to 25%.

As for `COc1ccccc1CC(=O)Nc1cccc2c(=O)n(C)ccc12` [Compound 1295], the inhibition at 0.3 µM was in the range of 0 to 25%.

Take `Cc1ccccc1CC(=O)Nc1cccc2c(=O)n(C)ccc12` [Compound 1296]: the inhibition at 0.3 µM lay in the range of 0 to 25%.

In the case of `COc1cccc(CC(=O)Nc2cccc3c(=O)n(C)ccc23)c1` [Compound 1297], the inhibition at 0.3 µM fell in the range of 26 to 50%.

As to `Cc1cccc(CC(=O)Nc2cccc3c(=O)n(C)ccc23)c1` [Compound 1298], the inhibition at 0.3 µM was in the range of 0 to 25%.

Turning to `COc1ccc(CC(=O)Nc2cccc3c(=O)n(C)ccc23)cc1` [Compound 1299], the inhibition at 0.3 µM fell in the range of 0 to 25%.

Take `Cn1ccc2c(NC(=O)c3cc4ccccc4o3)cccc2c1=O` [Compound 1300]: the inhibition at 0.3 µM is 0 to 25%.

For `Cn1ccc2c(NC(=O)Cc3ccc4c(c3)OCO4)cccc2c1=O` [Compound 1301], the inhibition at 0.3 µM was 0 to 25%.

`Cn1ccc2c(NC(=O)CC3CC4CC[C@H]3C4)cccc2c1=O` (stereo partly drawn) [Compound 1302]: the inhibition at 0.3 µM was in the range of 0 to 25%.

In the case of `Cn1ccc2c(NC(=O)[C@@]34C[C@@H]5C[C@@H](C[C@@H]3C5)C4)cccc2c1=O` [Compound 1303], the inhibition at 0.3 µM lay in the range of 0 to 25%.

As to `Cn1ccc2c(NC(=O)c3cccc4c3OCCO4)cccc2c1=O` [Compound 1304], the inhibition at 0.3 µM was 0 to 25%.

Turning to `Cn1ccc2c(NC(=O)c3ccc4c(c3)OCCCO4)cccc2c1=O` [Compound 1305], the inhibition at 0.3 µM was 0 to 25%.

In the case of `Cn1ccc2c(NC(=O)C3C[C@@H]4CC[C@H]3C4)cccc2c1=O` (stereo partly drawn) [Compound 1306], the inhibition at 0.3 µM is 0 to 25%.

As for `CCOc1ccccc1CC(=O)Nc1cccc2c(=O)n(C)ccc12` [Compound 1307], the inhibition at 0.3 µM lay in the range of 0 to 25%.

Turning to `Cn1ccc2c(NC(=O)c3cc4cc(Cl)ccc4o3)cccc2c1=O` [Compound 1308], the inhibition at 0.3 µM fell in the range of 0 to 25%.

In the case of `Cn1ccc2c(NC(=O)CCc3cccc(Cl)c3)cccc2c1=O` [Compound 1309], the inhibition at 0.3 µM is no less than 76%.

For `COCCn1ccc2c(NC(=O)c3ccccc3C)cccc2c1=O` [Compound 1310], the inhibition at 0.3 µM lay in the range of 0 to 25%.

For `COCCn1ccc2c(NC(=O)CCc3ccc(OC)cc3)cccc2c1=O` [Compound 1311], the inhibition at 0.3 µM is 0 to 25%.

`COCCn1ccc2c(NC(=O)c3cccc4ccccc34)cccc2c1=O` [Compound 1312]: the inhibition at 0.3 µM is 0 to 25%.

On to `COCCn1ccc2c(NC(=O)Cc3ccc(OC)c(OC)c3)cccc2c1=O` [Compound 1314], for which the inhibition at 0.3 µM is 0 to 25%.

Consider `COCCn1ccc2c(NC(=O)Cc3cccc(C)c3)cccc2c1=O` [Compound 1315], for which the inhibition at 0.3 µM is 0 to 25%.

`COCCn1ccc2c(NC(=O)Cc3ccc(OC)cc3)cccc2c1=O` [Compound 1316]: the inhibition at 0.3 µM is 0 to 25%.

On to `CCOc1ccc(CC(=O)Nc2cccc3c(=O)n(CCOC)ccc23)cc1` [Compound 1317], for which the inhibition at 0.3 µM is 0 to 25%.

For the compound `COCCn1ccc2c(NC(=O)Cc3ccc(C)cc3)cccc2c1=O` [Compound 1318], the inhibition at 0.3 µM fell in the range of 0 to 25%.

In the case of `COCCn1ccc2c(NC(=O)CCCc3ccccc3)cccc2c1=O` [Compound 1319], the inhibition at 0.3 µM lay in the range of 0 to 25%.

For the compound `COCCn1ccc2c(NC(=O)c3cc4ccccc4o3)cccc2c1=O` [Compound 1320], the inhibition at 0.3 µM was 0 to 25%.

For `COCCn1ccc2c(NC(=O)Cc3ccc4c(c3)OCO4)cccc2c1=O` [Compound 1321], the inhibition at 0.3 µM was in the range of 0 to 25%.

`COCCn1ccc2c(NC(=O)Cc3cc(OC)cc(OC)c3)cccc2c1=O` [Compound 1322]: the inhibition at 0.3 µM is 0 to 25%.

`COCCn1ccc2c(NC(=O)c3cc(C)c(OC)c(C)c3)cccc2c1=O` [Compound 1323]: the inhibition at 0.3 µM was 0 to 25%.

With `COCCn1ccc2c(NC(=O)c3ccc(C)c(Cl)c3)cccc2c1=O` [Compound 1324], the inhibition at 0.3 µM is 26 to 50%.

`COCCn1ccc2c(NC(=O)c3ccc(Cl)cc3C)cccc2c1=O` [Compound 1325]: the inhibition at 0.3 µM is 26 to 50%.

For `COCCn1ccc2c(NC(=O)CC3CC4CC[C@H]3C4)cccc2c1=O` (stereo partly drawn) [Compound 1326], the inhibition at 0.3 µM was no less than 76%.

Take `COCCn1ccc2c(NC(=O)[C@@]34C[C@@H]5C[C@@H](C[C@@H]3C5)C4)cccc2c1=O` [Compound 1327]: the inhibition at 0.3 µM is 0 to 25%.

In the case of `COCCn1ccc2c(NC(=O)c3ccc4c(c3)OCCCO4)cccc2c1=O` [Compound 1328], the inhibition at 0.3 µM is 0 to 25%.

With `COCCn1ccc2c(NC(=O)Cc3csc4ccccc34)cccc2c1=O` [Compound 1329], the inhibition at 0.3 µM lay in the range of 0 to 25%.

For the compound `COCCn1ccc2c(NC(=O)c3cccc(Cl)c3C)cccc2c1=O` [Compound 1330], the inhibition at 0.3 µM was in the range of 0 to 25%.

On to `COCCn1ccc2c(NC(=O)Cc3cc(C)cc(C)c3)cccc2c1=O` [Compound 1331], for which the inhibition at 0.3 µM was in the range of 0 to 25%.

With `COCCn1ccc2c(NC(=O)[C@H]3C[C@@H]4CC[C@H]3C4)cccc2c1=O` [Compound 1332], the inhibition at 0.3 µM lay within 0 to 25%.

Turning to `COCCn1ccc2c(NC(=O)Cc3ccc(OC)cc3OC)cccc2c1=O` [Compound 1333], the inhibition at 0.3 µM was 0 to 25%.

As for `COCCn1ccc2c(NC(=O)c3ccc(F)c(C)c3)cccc2c1=O` [Compound 1334], the inhibition at 0.3 µM was in the range of 0 to 25%.

For the compound `COCCn1ccc2c(NC(=O)CCc3ccc(Cl)cc3)cccc2c1=O` [Compound 1335], the inhibition at 0.3 µM was in the range of 0 to 25%.

`CCOc1ccccc1CC(=O)Nc1cccc2c(=O)n(CCOC)ccc12` [Compound 1336]: the inhibition at 0.3 µM is 0 to 25%.

Take `COCCn1ccc2c(NC(=O)Cc3ccc(OC)c(C)c3)cccc2c1=O` [Compound 1337]: the inhibition at 0.3 µM is 0 to 25%.

Turning to `COCCn1ccc2c(NC(=O)CCc3cccc(C)c3)cccc2c1=O` [Compound 1338], the inhibition at 0.3 µM was 0 to 25%.

For `COCCn1ccc2c(NC(=O)c3cccc(C)c3Cl)cccc2c1=O` [Compound 1339], the inhibition at 0.3 µM is 0 to 25%.

As for `COCCn1ccc2c(NC(=O)c3ccc(OC)c(C)c3)cccc2c1=O` [Compound 1340], the inhibition at 0.3 µM was 0 to 25%.

`COCCn1ccc2c(NC(=O)CCc3ccc(C)cc3C)cccc2c1=O` [Compound 1341]: the inhibition at 0.3 µM is 0 to 25%.

Regarding `COCCn1ccc2c(NC(=O)CCc3cccc(Cl)c3)cccc2c1=O` [Compound 1342], the inhibition at 0.3 µM is 0 to 25%.

As to `COCCn1ccc2c(NC(=O)c3ccc(CC(C)C)cc3)cccc2c1=O` [Compound 1343], the inhibition at 0.3 µM was in the range of 0 to 25%.

Turning to `O=C(Nc1cccc2c(=O)n(Cc3cccnc3)ccc12)c1ccccc1Cl` [Compound 1344], the inhibition at 0.3 µM is 26 to 50%.

`Cc1cccc(C(=O)Nc2cccc3c(=O)n(Cc4cccnc4)ccc23)c1C` [Compound 1345]: the inhibition at 0.3 µM fell in the range of 0 to 25%.

As to `COc1ccccc1CC(=O)Nc1cccc2c(=O)n(Cc3cccnc3)ccc12` [Compound 1351], the inhibition at 0.3 µM lay in the range of 0 to 25%.

For the compound `COc1ccc(OC)c(CC(=O)Nc2cccc3c(=O)n(Cc4cccnc4)ccc23)c1` [Compound 1352], the inhibition at 0.3 µM fell in the range of 0 to 25%.
